# Reference: patent publication US4762781A, “Antibodies capable of specifically identifying haptenic groups, their preparation and their use and to new antigens permitting their preparation” (priority 1983, dated 1988)
# Entries after “also recorded” stand apart in the source; their conditions may differ. Where two headings read alike, the source gives them in different places.
# Experiments:
# anti-GABA antiserum = experiment: Equilibrium dialysis competition with tracer (3H) GABA-GA-PPL; format: binding, rabbit; details: for cross-reactivity, times less than that of the GABA-GA-PPL conjugate: anti-GABA antiserum
# Method: The antibody solution is placed on one side of the membrane. Each conjugate of catecholamine is mixed with an equal volume of radioactive ligand before being placed on the other side of the membrane. The incubation solution of each antiserum is a citrate buffer 0.1M (pH 6.2) containing 1 mg/ml of bovine serum albumin (BSA) and 10 mM of sodium azide (N3 Na). The final volume is 2×150 microliters. This is left to incubate at 4° C. for 20 hours. Next the beta radioactivity in a sample of 100 microliters taken from each side of the membrane is counted.
# Studies of specificity were conducted using the method of equilibrium dialysis, by competition of the tracer (^3 H) GABA-GA-PPL and the various conjugated analogues GABA-GA-PPL, glycine-GA-PPL, etc.
# anti-TA antibodies = experiment: Equilibrium dialysis competition, displacement of (3H)-TA-G-ALM; format: binding, rabbit; details: for affinity constant KA: displacement of (3H)-TA-G-ALM from anti-TA antibodies; for affinity constant KA / KA: 1200 min; for KA: conjugates, slight immunoreactivity with anti-TA antibodies
# anti-DA antibodies = experiment: Equilibrium dialysis competition, displacement of (3H) DA-G-ALM; format: binding, rabbit; details: for affinity constant KA: displacement of (3H) DA-G-ALM from anti-DA antibodies; for affinity constant KA / KA: 1200 min; for KA: conjugates, cross-reactivity with anti-DA antibodies
# Anti-NA antibodies = format: binding, rabbit
# Anti-W antibodies = experiment: ELISA competition, affinity and specificity of anti-indolamine antibodies; format: binding, rabbit
# Method: This study was performed using an ELISA test (Enzyme-linked immunosorbent assay). The plates were coated with a solution of BSA-G-indolamine conjugate and then saturated with bovine serum. they were then placed in contact with the antibody solution under study, and then with anti-(rabbitgammaglobulin) goat antibodies conjugated with peroxidate of horseradish.
# GABA antiserum = experiment: Immunocytochemical absorption controls of GABA antiserum on rat brain sections; set-up: species or system rabbit; details: absorption with a 10^-3 M solution
# Method: Rat brains were fixed by perfusion with a 5% solution of glutaraldehyde in a cacodylate buffer, 0.1M, pH 7.5. The brain was cut in slices approximately 4 mm thick and then fixed again for 1.5-2 hours using the same fixative.
# Sections of 50 micrometers were incubated with GABA antiserum diluted to 1/1,500. This antiserum was visualized using the peroxidase-antiperoxidasemethod, with diaminobenzidine as the chromogen.
# [1] = concentrations between 10^-9 M and 10^-8 M
compound,measurement,setting,value
O=C(O)[C@H](CCCCNCCCCCNCCS(=O)(=O)O)NC(=O)[C@H](Cc1ccccc1)NC(=O)[C@@H]1CCCN1 [taurine conjugate],reactivity with anti-GABA antiserum,anti-GABA antiserum,on the same order or magnitude as with the conjugate of aspartate or glutamate
CNC(=O)[C@H](CCCCNCCCCCNCC(O)c1ccc(O)c(O)c1)NC(C)=O (some centres unmarked) [NA-G-ALM],displacement of (3H)-TA-G-ALM / recognition by anti-TA antibodies,anti-TA antibodies,No displacement
same,affinity constant KA,anti-TA antibodies,1.4×10^4 l.mol.^-1
same,"reactivity, times lower than that of DA-G-ALM",anti-DA antibodies; anti-DA antibodies,53 times
same,affinity constant KA,anti-DA antibodies,5×10^5 l.mol.^-1
same,displacement,Anti-NA antibodies,best displacement
same,KA,Anti-NA antibodies; 1200 min,3.8e+07 L/mol
"NC[C@H](O)c1ccc(O)c(O)c1 [NA, norepinephrine, reference compound]",displacement,Anti-NA antibodies,no displacement
"N[C@@H](Cc1c[nH]c2ccccc12)C(=O)O [Tryptophane, L-tryptophane]",displacement / identification by anti-W antibodies,Anti-W antibodies,only weakly identified
CNC(=O)[C@H](CCCCNCCCCCNCC(O)c1ccc(O)cc1)NC(C)=O (some centres unmarked) [OA--G--ALM],KA,anti-TA antibodies,5.9 × 10^5 1. mol.^-1
same,KA,anti-DA antibodies,5 × 10^4 1. mol.^-1
"NCCc1ccc(O)cc1 [TA, p-tyramine, reference compound]",displacement of (3H)-TA-G-ALM / recognition by anti-TA antibodies,anti-TA antibodies,incapable of displacing
same,affinity constant KA,anti-TA antibodies,10^4 l.mol.^-1
"NCCc1ccc(O)c(O)c1 [dopamine, reference compound]",affinity constant KA,anti-DA antibodies,6.7×10^3 l.mol.^-1
same,displacement of (3H) DA-G-ALM by unmodified hapten,anti-DA antibodies; even at a concentration of 10^-6 M,not capable of displacing
O=C(O)CNCCCCCNCCCC[C@H](NC(=O)[C@H](Cc1ccccc1)NC(=O)[C@@H]1CCCN1)C(=O)O [glycine conjugate],"cross-reactivity, times less than that of the GABA-GA-PPL conjugate",anti-GABA antiserum,795 times
O=C(O)CCNCCCCCNCCCC[C@H](NC(=O)[C@H](Cc1ccccc1)NC(=O)[C@@H]1CCCN1)C(=O)O [beta-alanine conjugate],"cross-reactivity, times less than that of the GABA-GA-PPL conjugate",anti-GABA antiserum,175 times
CNC(=O)[C@H](CCCCNCCCCCNCCc1ccc(O)cc1)NC(C)=O [TA-G-ALM],affinity constant KA,anti-TA antibodies,7×10^7 l.mol.^-1
same,displacement of (3H) DA-G-ALM / recognition by anti-DA antibodies,anti-DA antibodies,No displacement; also recorded: do not recognize
same,KA,anti-DA antibodies,3.1 × 10^4 1. mol.^-1
"NCCCC(=O)O [GABA, gamma-aminobutyric acid, reference compound]",coloration after absorption of the serum,GABA antiserum,very great reduction in coloration
same,displacement of the radioactive ligand (3H) GABA-GA-PPL,anti-GABA antiserum; even at a concentration of 10^-5 M,incapable of displacing
O=C(O)CCCNCCCCCNCCCC[C@H](NC(=O)[C@H](Cc1ccccc1)NC(=O)[C@@H]1CCCN1)C(=O)O [GABA--GA--lysine],Kd,anti-GABA antiserum; dissociation constant of the anti-GABA antibodies for the antigen,0.02 µM
CNC(=O)[C@H](CCCCNCCCCCN[C@@H](Cc1ccc(O)c(O)c1)C(=O)O)NC(C)=O [L-DOPA--G--ALM],KA,anti-TA antibodies,3.3 × 10^5 1. mol.^-1
same,KA,anti-DA antibodies,3.8 × 10^5 1. mol.^-1
CNC(=O)[C@H](CCCCNCCCCCNCCc1ccc(O)c(O)c1)NC(C)=O [DA-G-ALM],displacement of (3H)-TA-G-ALM / recognition by anti-TA antibodies,anti-TA antibodies,No displacement; also recorded: no affinity
same,affinity constant KA,anti-TA antibodies,2.6×10^4 l.mol.^-1
same,displacement of (3H) DA-G-ALM / recognition by anti-DA antibodies,anti-DA antibodies,No displacement
same,affinity constant KA,anti-DA antibodies,6.7×10^7 l.mol.^-1
same,displacement of (3H) DA-G-ALM / recognition by anti-DA antibodies,anti-DA antibodies; listed as DA-b-ALM,best displacement
O=C(O)CCC(NCCCCCNCCCC[C@H](NC(=O)[C@H](Cc1ccccc1)NC(=O)[C@@H]1CCCN1)C(=O)O)C(=O)O (some centres unmarked) [glutamate conjugate],reactivity with anti-GABA antiserum,anti-GABA antiserum; [1],No reactivity
O=C(O)CC(NCCCCCNCCCC[C@H](NC(=O)[C@H](Cc1ccccc1)NC(=O)[C@@H]1CCCN1)C(=O)O)C(=O)O (some centres unmarked) [aspartate conjugate],reactivity with anti-GABA antiserum,anti-GABA antiserum; [1],No reactivity
